Non-standard residues stand in square brackets, D forms with d. Residues, ends and D or L forms follow the SMILES beside them.
Columns and labels:
RNase A = experiment: gel assay of siRNA protection from RNase A degradation; format: in vitro ADME; details: 1 hour, several N:P ratios
Procedure: Gel Shift Assays. DIVA3, DIV3H, and DIV3W (all three denoted as DIV3 (X)) peptides suspended in RNase-free water (10 μM), were thawed, and kept on ice prior to complexation with 10 μM of negative control siGENOME non-targeting siRNA #5 (siNT, GE Healthcare Dharmacon, Lafayette, CO) in RNase-free water and incubated for 20 minutes at room temperature to allow the formation of DIV3 (X)-siNT complexes. Various molar ratios of peptides were complexed with siNT at increasing N:P molar ratios to determine the minimum molar ratio necessary to completely complex free siRNAs using an electrophoretic mobility shift assay. To determine the ability of each peptide variant to protect siRNAs from degradation, DIV3 (X)-siNT complexes or siNT alone was left untreated or incubated with either 50% v/v FBS or 5 μg/mL RNase A at 37° C. for one hour. Next, complexes were dissociated using 6% sodium dodecyl sulfate (SDS). Samples were added to a 2% agarose gel and run at 100 V. Gels were stained with ethidium bromide, destained with Milli-Q water, and imaged using a ChemiDoc XRS imager (Bio-Rad, Hercules, CA).
Characterization of Nanoparticle Size and Stability. To determine the minimum molar ratio necessary to completely complex free siRNAs, increasing N:P molar ratios of LHRH, DIV3W, and LHRH-DIV3W peptide were complexed with siRNAs and electrophoresed using a electrophoretic mobility shift assay. Molar ratios, shown as N:P, are representations of the molar amine peptide content in relation to 1 mole of phosphate group siRNA content. To determine the ability of the peptides to protect siRNAs from serum- or RNase-mediated degradation, LHRH and LHRH-DIV3W complexes were formed in RNase-free water with siNT at increasing N:P molar ratios and incubated at 37° C., 5% CO2, 50% v/v FBS, 5 μg/mL RNase A, or 50% v/v RNase free water for 1 hour. Peptide/siRNA complexes were dissociated using 6% sodium dodecyl sulfate (SDS) prior to electrophoresis in a 2% agarose gel run at 100 V. Gels were stained with ethidium bromide, washed with Milli-Q water, and imaged with a BioRad ChemiDoc XRS imager (BioRad, Hercules, CA).
Peptides VA-LD and GF-LD, comprising the cleavable linker VA or GLFG, respectively, between the LHRH target sequence and the DIV3W peptide, and non targeting siRNA were electrostatically complexed at increasing N:P ratios then subjected to agarose gel electrophoresis to determine optimal siRNA binding for each peptide. […] Peptide-siRNA nanocomplexes at increasing N:P ratios for peptides for VA-LD (FIG. 30A) and GF-LD (FIG. 30C) were incubated in either Rnase A enzyme or in 50% fetal bovine serum (FBS) for 1 h, dissociated using SDS then subjected to gel electrophoresis to visualize siRNA bands. Gels showing increasing N:P ratios of peptide:siRNA for VA-LD (FIG. 30B) and GF-LD (FIG. 30D) from 20:1 to 80:1 N:P; white bands are indicative of intact siRNA

CSNK2A1 mRNA [1] = experiment: qPCR of CSNK2A1 mRNA in CAOV3 cells; format: cell-based; details: CAOV3, 48 hours, 80:1
Procedure: (§1) qRT-PCR. Cells were seeded at 50,000 cells per well and treated with siRNA targeting CSNK2A1 (siCSNK2A1 #s3638, Thermo Fisher Scientific) at increasing N:P ratios and incubated for a total of 48 hours in McCoys 5A/DMEM-10% FBS. Treated cells were washed with 1×PBS at 24 hours and fresh media was added. RNAisolation was completed using a Qiagen Mini-RNeasy Kit (Qiagen, Hilden, Germany) according to the manufacturer's protocol. RNA isolation quality and quantity were measured through the Gen5 protocol using a Take3 plate (BioTek). RNA was reverse-transcribed using the QuantiTect Reverse Transcription kit (Qiagen). Quantitative real-time PCR was completed with a QuantStudio 3 qPCR system (Applied Biosystems) using Applied Biosystems TaqMan FAST Master Mix (Thermo Fisher) and CSNK2A1 (ID #Hs00751002_s1) and 18S (ID #Hs99999901_s1) predesigned TaqMan probes, according to the manufacturer's protocol.

CSNK2A1 mRNA [2] = experiment: qPCR of CSNK2A1 mRNA in OVCAR3 cells; format: cell-based; details: maximum; ratio and cell line not stated at the place
Procedure: as §1
Gene and Protein Knockdown. Bioactivity of siRNAs was determined via qPCR and western blot analysis. OVCAR3 or CAOV3 cells were seeded at 50,000 cells per well as previously described and treated with siRNA targeting CSNK2A1 and siNT at N:P ratios 30:1, 40:1, 50:1, 60:1, and 70:1. LHRH-DIV3W peptide complexed with either siNT or siCSNK2A1 was incubated for a total of 48 hours in RPMI 1640/DMEM-10% FBS, with one media exchange occurring after the 24-hour timepoint. Treated cells were washed with 1×PBS at 24 hours and fresh media was added. RNA isolation was completed using a Qiagen Mini-RNeasy Kit (Qiagen, Hilden, Germany) according to the manufacturer's protocol. RNA isolation quality and quantity was measured through the Gen5 protocol using a Take3 plate (BioTek). RNA was reverse transcribed using the QuantiTect Reverse Transcription kit (Qiagen) according to the manufacturer's protocol. Quantitative real-time PCR was completed with a QuantStudio 3 qPCR system (Applied Biosystems, Waltham, MA) using Applied Biosystems TaqMan FAST Master Mix (Thermo Fisher) and CSNK2A1 (ID #Hs00751002_s1) and 18S (ID #Hs99999901_s1) predesigned TaqMan probes according to the manufacturer's protocol.

[3] = dynamic light scattering, size and zeta potential of peptide/siRNA complexes; format: physicochemical
Procedure: Dynamic Light Scattering and Transmission Electron Microscopy. DIV3 (X)-siNT complexes were prepared at 2 mg/mL in RNase-free water. Hydrodynamic size and surface charge of the peptide/siRNA complexes were determined using a Nano ZS Zetasizer (Malvern Pananalytical, Malvern, UK). All data were recorded using Malvern's Zetasizer software.
To determine nanoparticle size and zeta potential, peptides resuspended in RNase-free water (10 μM) were thawed and kept on ice prior to complexation with 10 μM of siNT in RNase-free water and incubated for 20 minutes at room temperature to form DIV3W-siNT and LHRH-DIV3W-siNT complexes. Peptide complexes were prepared at 2 mg/mL in RNase-free water. Hydrodynamic size and surface charge analysis was conducted using a Malvern Nano ZS Zetasizer (Malvern Panalytical, Malvern, UK). All data was analyzed using Malvern's Zetasizer software.

OVCAR3 cells = experiment: cellular uptake of labeled siRNA by flow cytometry; format: cell-based; details: for uptake efficiency: OVCAR3, siNT-DY547, 4 hours
Procedure: Cellular Uptake. OVCAR3 and CAOV3 cells were prepared at 50,000 cells per well in a 24-well plate. […] Post-incubation, media was aspirated and cells were washed with 1× PBS. To counterstain the nuclei, SuperSignal NucBlue Hoechst stain (Thermo Fisher, Waltham, MA) was added to the cells for 30 minutes, followed by an additional 1×PBS wash. Subsequent imaging was performed using an EVOS FL Microscope (Thermo Fisher) at 10× magnification. For flow cytometric analysis, cells were detached, resuspended in 1× PBS, and analyzed using an Attune NXT Acoustic flow cytometer (Invitrogen, Carlsbad, CA) with the blue laser line and BL2 (574/26 nm) channel.
Cellular Uptake and Targeting Specificity. Observation of cell uptake was performed by seeding OVCAR3 and CAOV3 cells at a density of 50,000 cells per well in a 24-well plate. LHRH and LHRH-DIV3W peptides were complexed with […] as previously described and delivered to cells at 20:1 to 80:1 N:P ratios. Each cell line was incubated with tandem peptide complexes for both 4- and 24-hour treatment periods. Following incubation, cell media was removed, and cells were washed with 1× PBS prior to the addition of 500 μL of 1×PBS and SuperSignal NucBlue Hoescht 33342 nuclear stain (Thermo Fisher, Waltham, MA). Cellular imaging was completed using an EVOS FL Microscope (Thermo Fisher) at 10×, 20×, and 40× magnification. Flow cytometry was completed after cell imaging and cells were trypsinized, resuspended in 1×PBS, and analyzed with an Attune NXT Acoustic Flow Cytometer (Invitrogen) with the red laser line and RL2 […] channel.

[4] = test system: MCF10a breast epithelial cells; experiment: MTS cell viability assay, healthy cells; format: cell-based; details: 48 h (FIG. 25: DIV3W-siNT complexes)

For `CC[C@H](C)[C@H](NC(=O)[C@H](CC(=O)O)NC(=O)[C@H](C)NC(=O)[C@@H](NC(=O)[C@@H](NC(=O)[C@H](CC(=O)O)NC(=O)[C@H](Cc1c[nH]c2ccccc12)NC(=O)[C@@H](NC(=O)[C@@H](NC(=O)[C@H](CC(=O)O)NC(=O)[C@H](C)NC(=O)[C@@H](NC(=O)[C@@H](NC(=O)[C@H](CC(=O)O)NC(=O)[C@H](C)NC(=O)[C@H](CCC(=O)O)NC(=O)[C@@H](N)Cc1c[nH]c2ccccc12)[C@@H](C)CC)C(C)C)[C@@H](C)CC)C(C)C)[C@@H](C)CC)C(C)C)C(=O)N[C@H](C(=O)N[C@@H](C)C(=O)NCC(=O)NCC(=O)NCC(=O)N[C@H](CCCNC(=N)N)C(=O)N[C@H](CCCNC(=N)N)C(=O)N[C@H](CCCNC(=N)N)C(=O)N[C@H](CCCNC(=N)N)C(=O)N[C@H](CCCNC(=N)N)C(=O)N[C@H](CCCNC(=N)N)C(=O)N[C@H](CCCNC(=N)N)C(=O)N[C@H](CCCNC(=N)N)C(=O)N[C@H](CCCNC(=N)N)C(=O)O)C(C)C` [DIV3W] (H-WEADIVADIVWDIVADIVAGGG[dR][dR][dR][dR][dR][dR][dR][dR][dR]-OH), the “intact siRNA after incubation with RNase A” value (RNase A) was “Minimal degradation”, the “CSNK2A1 mRNA knockdown, maximum” value (CSNK2A1 mRNA [1]) was 80% and the mRNA reduction (CSNK2A1 mRNA [2]) was “up to 94%”. The hydrodynamic diameter ([3]; DIV3 (X) peptide/siRNA complex at 60:1 ratio) was “around 100 nm”, the zeta potential ([3]; DIV3 (X) peptide/siRNA complexes) was about 30 mV and the siRNA internalization efficiency (OVCAR3 cells; OVCAR3, at each N:P ratio) was “approximately 65%”. For the same molecule, the uptake efficiency (OVCAR3 cells; 40:1) was 70.0%, the uptake efficiency (OVCAR3 cells; 60:1) was 69.7% and the uptake efficiency (OVCAR3 cells; 80:1) was 66.6%. The “cytotoxicity in healthy cells” value [4] was “no cytotoxic effects were observed”.

Source: patent publication US20250177548A1, “FUSOGENIC PEPTIDE COMPOSITIONS AND METHODS OF CARGO DELIVERY” (CLEMSON UNIVERSITY, priority 2022, published 2025)
